Measurements from patent US9522935B2, “Commands and method of treating cancer via RHO pathway” (priority 2013, dated 2016).

How the values were obtained:
[1] = system: Jak/STAT phosphorylation in PancI cells; experiment: Western Blotting of signal pathway proteins in PancI cells; assay type: cell-based, human
[2] = Toxicity study of LD030 on BALB/c mice; assay type: in vivo
Procedure: LD030 animal toxicity experiments were conducted in adult BALB/c mice. The mice were subject to a […] dosage of 1-16 mg/Kg via peritoneal injection. […] The results confirmed that at a dosage as high as 16 mg/Kg LD030 is safe to BALB/c. By short-term toxicological experiment, the half-lethal dose LD50 (under continuous treatment) is 4 mg/kg, and the median effective dose ED50 of 0.2 mg/kg, resulting in a therapeutic Index of 20 (that is, LD50/ED50≈20).

[3] = system: Jak/STAT phosphorylation in PancI cells; experiment: Western Blotting of signal pathway proteins in PancI cells; assay type: cell-based, human; remark: listed apart in the source
Procedure: The Jak/STAT channel plays an important role in cell growth, proliferation, and survival. Using Western Blotting, the present invention studied the effect of LD030 on Jak/STAT phosphorylation in PancI cells.
The cells were treated with LD030 at concentrations of 20 μM and 50 μM, for 4 hours, 8 hours, 24 hours, and 48 hours. After the treatment, the cells were collected and subject to lysis in the buffer (50 mM Tris-HCl pH7.5, 100 mM NaCl, 5 mM EDTA, 40 mM NaP2O7, 1% Triton X-100, 1 mM dithiothreitol, 200 μM Na3VO4, 100 μM phenylmethysufonyl fluoride fluoride, 2 μg/ml leupeptin, 4 μg/ml aprotinin and 0.7 μg/ml pepstatin). Analysis of stained protein (BioRad, 500-0006) was conduct for adjusting the protein concentration. Same quantity of protein (50 μg/lane) was used for 10% SDS-polyacrylamide gel electrophoresis, and then electrically transferred to the polyvinylidene fluoride (PVDF) membrane. The membrane was treated with antibodies specific to p-Jak2 (Cell signaling, 3771), p-Stat3 (Cell signaling, 9131) and α-tubulin (Zymed Laboratories, 32-2500). Visible protein bands were detected with an enhanced chemiluminescence (ECL Plus) detection system (Amersham).
The protein electrophoresis results in the above described experiments are shown FIGS. 23 and 24 for LD030 treatments at 20 μM and 50 μM, respectively. […] The expression of tubulin as internal reference was basically unchanged.

[4] = system: HepG2 cells; experiment: Nude mouse model of hepatocellular carcinoma (HepG2), growth rate; assay type: in vivo, nude mice
Procedure: In contrast, LD30 (1 mg/kg/time, twice a day) reduced the growth rate of HepG2 cells by about 63%, with statistical significance (p<0.05) when compared with the ethanol control.
LD030 was also compared with Nexavar for their effects on the growth rate of HepG2 cells.
A further study was conducted on liver cancer cell line in nude mice (HepG2), where Nexavar's dosage was 30 mg/kg, twice a day and LD030's dosage was 1 mg/kg, twice a day along with a blank control and a combination of LD030 and Nexavar. The result is shown in FIG. 21 where Nr stands for Nexavar. […] When compared with the blank, LD030's effect is statistically significant (p<0.05).

[5] = system: HepG2; experiment: In vitro effects on growth of liver cancer cells (Table 4); assay type: cell-based, human
[6] = system: HepG2 cells; experiment: Flow cytometry (PI staining) for apoptosis of HepG2 cells; assay type: cell-based, human; settings: HepG2, 24 hours, 0.03-17.5 μM
Procedure: The study was conduct by using flow cytometry to detect apoptosis of HepG2 cells after being treated for 24 hours with LD030 at concentrations 0.03 μM, 0.14 μM, 0.7 μM, 3.5 μM, and 17.5 μM along with blank control. Then proceeded as follows:
1. Collect cells (1-5×10^6/mL), centrifuge at 500-1000 r/min for 5 min, and discard the culture medium.
2. Wash the cells with 3 ml PBS once.
3. Centrifuge to discard PBS, and add 70% ice-cold ethanol for fixation, 4° C., 1-2 hours.
4. Centrifuge to discard ethanol, and re-suspend in 3 ml PBS for 5 min.
5. Filter with a 400 mesh screen, and centrifuge 500-1000 r/min for 5 min to discard PBS.
6. Stain with 1 ml propidium iodide (Propidium Iodide, PI) at 4° C. in the dark for 30 min.
7. Conduct flow cytometry.

[7] = system: HepG2 (liver cancer cell line); experiment: MTT assay, LD030 on HepG2; assay type: cell-based; settings: Homo sapiens, 48 hours, read-out: inhibition rate on cell growth
Procedure: MTT assay, a well known method known in the art, was used to analyze anticancer effects of compound LD030 on human cancer cell lines, such as, HepG2 (liver cancer cell line), PancI (pancreatic cancer cell line), NCI-H460 (lung cancer cell line), MCF-7 (breast adenocarcinoma cell line) and SF-268 (brain tumor cell lines). An LD030 solution was diluted gradually to obtain a serial of LD030 solutions with decreasing concentrations, which was used to treat various cancer cell lines mentioned above incubated in separate container. […] For incubating with HepG2 cell line, LD030's concentrations were 0.001 μM, 0.01 μM, 0.1 μM, 1 μM, 10 μM, 100 μM. For PancI cell line, the concentrations were 0.1 μM, 1 μM, 10 μM, 100 μM. For NCI-H460 cell line, the concentrations were 0.001 μM, 0.01 μM, 0.1 μM, 1 μM, 10 μM, 100 μM. For MCF-7 cell line, the concentrations were 0.001 μM, 0.01 μM, 0.1 μM, 1 μM, 10 μM, 100 μM. For SF-268 cell line, the concentrations were 0.001 μM, 0.01 μM, 0.1 μM, 1 μM, 10 μM, 100 μM.

[8] = system: allograft pancreatic cancer cell lines; experiment: Allograft pancreatic cancer cell lines in mouse model, tumor size; assay type: in vivo; settings: 0.01 mg/kg intraperitoneal injection, three times a week
Procedure: LD030's effect on the growth of allograft pancreatic cancer cell lines was further studied as follows: Each mouse model was given 0.01 mg/kg LD030 via intraperitoneal injection, three times a week. […] Extracted from the treated mouse and the control mouse, the phosphorylation-signal transduction and activator of transcription (p-STAT3), phospho-JAK2 (p-JAK2), Bcl-XL, apoptosis protease 3, 9 and GADPH (glyceraldehyde-3-phosphate dehydrogenase, or […]) were subject to protein electrophoresis. […] GADPH was used as an internal reference, the expression of which was basically unchanged.

[9] = 50 μM, at 24 hours and 48 hours, versus blank control
[10] = 20 μM, at 24 hours and 48 hours, versus blank control

Q: Which p-p38 protein expression ([1]; 20 μM, versus blank control) does the source give for `CC(=O)OC(C)(C)C(=O)CCC(C)C1CC[C@@]2(C)C34CC[C@H]5C(C)(C)[C@@H](O)CC[C@]5(C)C3(CC[C@]12C)O4` (stereo partly drawn) [LD030] here?
A: The p-p38 protein expression was “increased”.

Q: And the p-jak2 [1, 9]?
A: Its p-jak2 is “significantly reduced”.

Q: And the “p-stat3 (tyr705)” value [1, 9]?
A: The value was “significantly reduced”.

Q: What about the “expression of Cyclin B1” value ([1]; 50 μM, at 48 hours) of the same compound?
A: Its value is “decreased”.

Q: What about the “therapeutic Index (LD50/ED50)” value ([2]; BALB/c, mouse, in vivo) of the same compound?
A: The value was 20.

Q: What about the LD50 ([2]; BALB/c, mouse, in vivo, short-term toxicological experiment, under continuous treatment, read-out: half-lethal dose LD50) of the same compound?
A: The LD50 was 4 mg/kg.

Q: What about the ED50 ([2]; Mus musculus, read-out: median effective dose ED50) of the same compound?
A: Its ED50 is 0.2 mg/kg.

Q: And the toxicity observed ([2]; adult BALB/c mice, 1-16 mg/Kg via peritoneal injection)?
A: Its toxicity observed is “No significant toxicity”.

Q: What about the survival ([2]; adult BALB/c mice, 1-16 mg/Kg via peritoneal injection, after 14 days) of the same compound?
A: Its survival is “still alive”.

Q: And the p-jak2 [3, 10]?
A: Its p-jak2 is “significantly reduced”.

Q: And the “p-stat3 (tyr705)” value [3, 10]?
A: The value was “significantly reduced”.

Q: And the p-JNK ([3]; 20 μM, versus blank control)?
A: The p-JNK was “up-regulates”.

Q: And the p-ERK [3, 9]?
A: The p-ERK was “significantly reduced”.

Q: What about the p-c-raf [3, 9] of the same compound?
A: Its p-c-raf is “significantly reduced”.

Q: What about the “expression of Cyclin D1” value ([3]; 50 μM, at 48 hours) of the same compound?
A: Its value is “decreased”.

Q: And the “expression of p-JNK” value ([3]; 50 μM, versus blank control)?
A: Its value is “increased”.

Q: And the “expression of p-p38” value ([3]; 50 μM, versus blank control)?
A: Its value is “increased”.

Q: And the “effect on the tumor cells” value ([4]; HepG2 in nude mice, LD030 1 mg/kg twice a day alone, FIG. 21)?
A: The value was “inhibitory effect”.

Q: What about the “reduction of growth rate of HepG2 cells” value ([4]; nude mouse model, 1 mg/kg, twice a day, versus blank carrier control) of the same compound?
A: The value was “about 63%”.

Q: What about the IC50 ([5]; Homo sapiens, HepG2, in vitro growth of HepG2 liver cancer cells) of the same compound?
A: Its IC50 is 1330 nM.

Q: And the IC50 ([5]; in vitro growth of HepG2 liver cancer cells)?
A: The IC50 was 1570 nM.

Q: And the “cell lysis by flow cytometry” value [6]?
A: The value was “greater proportions of cell lysis with increased LD030 concentrations”.

Q: What about the inhibition at 100 µM [7] of the same compound?
A: Its inhibition at 100 µM is over 80%.

Q: And the “tumor size versus untreated control mouse” value [8]?
A: The value was “significantly reduced”.
